Results published in patent US20240092835A1, “NOVEL PEPTIDES CAPABLE OF ALTERING NK CELL ACTIVITY” (Massachusetts Institute of Technology, priority 2022, published 2024).

Tests used:
[1] = biological target: T1, HLA-E (Homo sapiens, UniProt P13747); assay: HLA-E surface stabilization assay with RMA-S/HLA-E cells; type: cell-based; details: 30 μM peptide, 16 hours; for HLA-E surface expression stability (GeoMFI): anti-HLA-E antibody
T1 construct: expressed in transfected cells; host or cells: RMA-S/HLA-E cells (antigen processing-defective lymphoma cell line)
T1 sequence (P13747 22-358): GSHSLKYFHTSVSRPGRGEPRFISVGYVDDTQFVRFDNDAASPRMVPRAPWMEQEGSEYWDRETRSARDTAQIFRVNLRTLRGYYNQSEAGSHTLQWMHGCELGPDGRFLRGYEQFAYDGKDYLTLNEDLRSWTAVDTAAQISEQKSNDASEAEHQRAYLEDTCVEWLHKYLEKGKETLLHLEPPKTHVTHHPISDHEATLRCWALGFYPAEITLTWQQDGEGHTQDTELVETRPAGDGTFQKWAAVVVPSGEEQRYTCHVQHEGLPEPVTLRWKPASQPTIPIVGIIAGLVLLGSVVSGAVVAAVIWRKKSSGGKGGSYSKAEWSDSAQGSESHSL
T1 sequence (P61769 21-119 partner): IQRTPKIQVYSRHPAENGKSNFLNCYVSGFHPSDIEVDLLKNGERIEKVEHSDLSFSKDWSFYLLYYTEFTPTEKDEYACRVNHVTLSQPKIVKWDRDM
Procedure: HLA-E surface expression was assessed by measuring geometric mean fluorescence intensity (GeoMFI) in RMA-S cells following immunofluorescence staining with an anti-HLA-E antibody (Table 14). Increased GeoMFI was indicative of increased HLA-E surface expression stability following novel peptide exposures (FIG. 3).

[2] = system: NKG2A−/NKG2C+ NK cells; assay: NK cell activation markers in NKG2A-/NKG2C+ NK cells incubated with peptide and K562 expressing HLA-E (activation); type: cell-based, human; details: for effect on NKG2A−/NKG2C+ NK cell activation (in words): K562 expressing HLA-E, CD107a, IFNG, TNF, CCL3; for percentage of CCL3+ NK cells / percentage of CD107+ NK cells / percentage of IFNG+ NK cells / percentage of TNF+ NK cells: NKG2A-/NKG2C+ NK cells, K562/HLA-E
Procedure, shortened: (§1)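 K562 + HLA-E, pulsed with human/CMV proteome peptides → incubated with sorted NK subsets → surface marker staining, % positive cells. Increase = activation; decrease = inhibition.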

[3] = system: NKG2A−/NKG2C− NK cells; assay: NK cell activation markers in control NKG2A-/NKG2C- NK cells incubated with peptide and K562 expressing HLA-E; type: cell-based, human
Procedure, shortened: as §1

[4] = system: NKG2A+/NKG2C− NK cells; assay: NK cell activation markers in NKG2A+/NKG2C- NK cells incubated with peptide and K562 expressing HLA-E (inhibition); type: cell-based, human; details: for percentage of CCL3+ NK cells / percentage of CD107a+ NK cells / percentage of IFNG+ NK cells / percentage of TNF+ NK cells: NKG2A+/NKG2C- NK cells, K562/HLA-E
Procedure, shortened: as §1

## VLPHRTQFL [CMV1, novel CMV-derived peptide UL120 72-80, Merlin]
[1]; Trial 1
  HLA-E surface expression stability (GeoMFI): 2140 GeoMFI
[1]; Trial 2
  HLA-E surface expression stability (GeoMFI): 1714 GeoMFI
[1]; Trial 3
  HLA-E surface expression stability (GeoMFI): 2014 GeoMFI
[1]; Trial 4
  HLA-E surface expression stability (GeoMFI): 2421 GeoMFI
[1]; approximate value
  HLA-E surface expression stabilization strength, approximate GeoMFI: approximately 2×10^3 GeoMFI
[2]
  effect on NKG2A−/NKG2C+ NK cell activation (in words): strong inhibitory and activating effects
[2]; listed as SEQ ID NO. 15
  effect on NKG2A−/NKG2C+ NK cell activation (in words): strong activating effects
[2]; Trial 1
  percentage of CCL3+ NK cells: 80.1%
  percentage of CD107+ NK cells: 77.3%
  percentage of IFNG+ NK cells: 66.3%
  percentage of TNF+ NK cells: 53.3%
[2]; Trial 2
  percentage of CCL3+ NK cells: 90.4%
  percentage of CD107+ NK cells: 87.2%
  percentage of IFNG+ NK cells: 82.8%
  percentage of TNF+ NK cells: 76.1%
[2]; Trial 3
  percentage of CCL3+ NK cells: 86.5%
  percentage of CD107+ NK cells: 86.2%
  percentage of IFNG+ NK cells: 78.5%
  percentage of TNF+ NK cells: 68.8%
[2]; Trial 4
  percentage of CCL3+ NK cells: 67.5%
  percentage of CD107+ NK cells: 67.3%
  percentage of IFNG+ NK cells: 58.2%
  percentage of TNF+ NK cells: 51%
[2]; Trial 5
  percentage of CCL3+ NK cells: 78.1%
  percentage of CD107+ NK cells: 76.9%
  percentage of IFNG+ NK cells: 69.5%
  percentage of TNF+ NK cells: 66%
[2]; Trial 6
  percentage of CCL3+ NK cells: 58.3%
  percentage of CD107+ NK cells: 53.4%
  percentage of IFNG+ NK cells: 42.5%
  percentage of TNF+ NK cells: 33.3%
[3]; Trial 1
  percentage CCL3+ NK cells: 29.9%
  percentage CD107+ NK cells: 21.4%
  percentage TNF+ NK cells: 2.62%
  percentage of IFNG+ NK cells: 13.5%
[3]; Trial 2
  percentage CCL3+ NK cells: 52.4%
  percentage CD107+ NK cells: 32.5%
  percentage TNF+ NK cells: 9.43%
  percentage of IFNG+ NK cells: 27.7%
[3]; Trial 3
  percentage CCL3+ NK cells: 47.3%
  percentage CD107+ NK cells: 41.9%
  percentage TNF+ NK cells: 13.6%
  percentage of IFNG+ NK cells: 36.7%
[3]; Trial 4
  percentage CCL3+ NK cells: 27.2%
  percentage CD107+ NK cells: 25.7%
  percentage TNF+ NK cells: 8.63%
  percentage of IFNG+ NK cells: 17.4%
[3]; Trial 5
  percentage CCL3+ NK cells: 26.6%
  percentage CD107+ NK cells: 18.6%
  percentage TNF+ NK cells: 6.68%
  percentage of IFNG+ NK cells: 14.6%
[3]; Trial 6
  percentage CCL3+ NK cells: 19.1%
  percentage CD107+ NK cells: 14.5%
  percentage TNF+ NK cells: 2.86%
  percentage of IFNG+ NK cells: 8.57%
[4]; K562 expressing HLA-E, CD107a, IFNG, TNF, CCL3
  effect on NKG2A+/NKG2C− NK cell inhibition (in words): strong inhibitory
[4]; Trial 1
  percentage of CCL3+ NK cells: 3.55%
  percentage of CD107a+ NK cells: 2.12%
  percentage of IFNG+ NK cells: 0.46%
  percentage of TNF+ NK cells: 0.27%
[4]; Trial 2
  percentage of CCL3+ NK cells: 7.82%
  percentage of CD107a+ NK cells: 3.42%
  percentage of IFNG+ NK cells: 1.08%
  percentage of TNF+ NK cells: 0.39%
[4]; Trial 3
  percentage of CCL3+ NK cells: 7.91%
  percentage of CD107a+ NK cells: 4.2%
  percentage of IFNG+ NK cells: 2.52%
  percentage of TNF+ NK cells: 1.09%
[4]; Trial 4
  percentage of CCL3+ NK cells: 3.5%
  percentage of CD107a+ NK cells: 3.15%
  percentage of IFNG+ NK cells: 0.93%
  percentage of TNF+ NK cells: 0.7%
[4]; Trial 5
  percentage of CCL3+ NK cells: 14.5%
  percentage of CD107a+ NK cells: 3.92%
  percentage of IFNG+ NK cells: 1.35%
  percentage of TNF+ NK cells: 0.82%
[4]; Trial 6
  percentage of CCL3+ NK cells: 3.86%
  percentage of CD107a+ NK cells: 2.27%
  percentage of IFNG+ NK cells: 0.82%
  percentage of TNF+ NK cells: 0.34%
